Results as given in the NIST ThermoML archive (doi:10.1021/je400407z).
± gives the expanded uncertainty stated by the source.

Conditions: Liquid, Closed cell (Static) method

FC(F)CC(F)(F)F [1,1,1,3,3-pentafluoropropane]
Conditions | vapor or sublimation pressure [kPa]
260.32 K | 28.52 ± 2.4
272.13 K | 50.91 ± 2.4
281.15 K | 75.62 ± 2.4
293.31 K | 122.98 ± 2.4
305.49 K | 192.78 ± 2.5
313.62 K | 254.28 ± 2.5
321.4 K | 324.38 ± 2.5
333.49 K | 467.72 ± 2.6
345.16 K | 642.26 ± 2.7
351.47 K | 754.32 ± 2.9
364 K | 1028.2 ± 3.2
377.04 K | 1378.2 ± 3.5

C=C(Cl)C(F)(F)F [2-chloro-3,3,3-trifluoro-1-propene]
Conditions | vapor or sublimation pressure [kPa]
263.25 K | 43.43 ± 2.4
264.27 K | 45.2 ± 2.4
265.23 K | 47.13 ± 2.4
266.27 K | 48.88 ± 2.4
267.16 K | 51.02 ± 2.4
267.22 K | 50.69 ± 2.4
268.2 K | 52.65 ± 2.4
269.08 K | 55.2 ± 2.4
270.04 K | 57.24 ± 2.4
270.94 K | 59.24 ± 2.4
270.95 K | 59.34 ± 2.4
271.9 K | 61.45 ± 2.4
273.85 K | 66.42 ± 2.4
274.8 K | 68.69 ± 2.4
275.39 K | 70.68 ± 2.4
277.03 K | 75.24 ± 2.4
277.96 K | 77.86 ± 2.4
278.77 K | 80.2 ± 2.4
278.99 K | 81.33 ± 2.4
279.8 K | 83.72 ± 2.4
280.56 K | 85.87 ± 2.4
281.62 K | 89.39 ± 2.4
282.8 K | 93.36 ± 2.4
283.65 K | 95.62 ± 2.4
284.51 K | 98.59 ± 2.4
285.1 K | 100.84 ± 2.4
286.15 K | 103.78 ± 2.4
287.18 K | 107.59 ± 2.4
288.59 K | 113.2 ± 2.4
289.24 K | 115.72 ± 2.4
290.31 K | 120.08 ± 2.4
292.2 K | 128.29 ± 2.4
294.48 K | 138.49 ± 2.4
296.12 K | 146.32 ± 2.4
297.41 K | 152.85 ± 2.4
298.46 K | 158.2 ± 2.4
299.53 K | 164.03 ± 2.4
300.22 K | 167.73 ± 2.4
301.38 K | 174.15 ± 2.4
303.03 K | 183.59 ± 2.4
304.22 K | 191.32 ± 2.5
305.36 K | 198.32 ± 2.5
306.37 K | 205.25 ± 2.5
307.38 K | 212.61 ± 2.5
308.45 K | 219.76 ± 2.5
309.44 K | 226.88 ± 2.5
311.14 K | 239.23 ± 2.5
312.65 K | 250.71 ± 2.5
313.32 K | 255.58 ± 2.5
314.65 K | 265.41 ± 2.5
315.41 K | 271.67 ± 2.5
316.41 K | 279.99 ± 2.5
317.54 K | 288.86 ± 2.5
318.54 K | 296.49 ± 2.5
319.54 K | 305.35 ± 2.5
320.2 K | 312.84 ± 2.5
321.51 K | 323.9 ± 2.5
322.28 K | 330.9 ± 2.5
322.39 K | 331.79 ± 2.5
323.27 K | 340.55 ± 2.5
324.4 K | 351.13 ± 2.5
325.16 K | 359.71 ± 2.5
326.17 K | 370.1 ± 2.5
327.54 K | 383.61 ± 2.5
328.16 K | 390.36 ± 2.5
329.38 K | 402.72 ± 2.5
330.27 K | 412.59 ± 2.6
331.36 K | 424.58 ± 2.6
332.28 K | 434.81 ± 2.6
333.1 K | 444.59 ± 2.6
333.37 K | 447.55 ± 2.6
334.34 K | 462.26 ± 2.6
335.18 K | 468.47 ± 2.6
336.2 K | 480.83 ± 2.6
337.33 K | 494.73 ± 2.6
338.3 K | 506.41 ± 2.6
339.24 K | 518.13 ± 2.6
340.43 K | 533.53 ± 2.6
341.35 K | 545.17 ± 2.7
342.25 K | 558.82 ± 2.7
342.53 K | 561.23 ± 2.6
344.38 K | 589.61 ± 2.7
345.78 K | 613.34 ± 2.8
346.77 K | 629.58 ± 2.7
347.88 K | 646.33 ± 2.7
348.77 K | 660.14 ± 2.8
349.98 K | 679.92 ± 2.8
350.86 K | 695.77 ± 2.8
352.84 K | 728.61 ± 2.8
354.89 K | 762.84 ± 2.8
356.87 K | 799.73 ± 2.9
358.89 K | 838.22 ± 2.9
360.78 K | 874.39 ± 3
362.63 K | 916.57 ± 3
364.64 K | 957.2 ± 3
366.88 K | 1003.7 ± 3.1
368.89 K | 1047.8 ± 3.1
370.88 K | 1093 ± 3.2
372.9 K | 1138.9 ± 3.2
